Drawing on PMC6584941 (Cancer Letters, 2019), this text covers Kd for two molecules.

The target in experiment [1] is T1, Shc (PTB domain, Shc^PTB R175Q) (Homo sapiens, UniProt P29353, R285Q).
T1 sequence (P29353 156-339 R285Q limits assumed): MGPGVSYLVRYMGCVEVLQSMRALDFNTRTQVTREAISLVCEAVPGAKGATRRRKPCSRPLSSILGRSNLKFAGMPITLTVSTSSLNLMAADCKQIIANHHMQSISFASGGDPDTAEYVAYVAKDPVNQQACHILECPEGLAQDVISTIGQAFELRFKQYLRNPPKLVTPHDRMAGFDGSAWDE
Nature of the experiment: MST with Atto488-labelled Shc^PTB R175Q. It is filed as binding.

Experiment [2] has as its target T2, Shc (PTB domain, Shc^PTB) (Homo sapiens, UniProt P29353).
T2 sequence (P29353 156-339 limits assumed): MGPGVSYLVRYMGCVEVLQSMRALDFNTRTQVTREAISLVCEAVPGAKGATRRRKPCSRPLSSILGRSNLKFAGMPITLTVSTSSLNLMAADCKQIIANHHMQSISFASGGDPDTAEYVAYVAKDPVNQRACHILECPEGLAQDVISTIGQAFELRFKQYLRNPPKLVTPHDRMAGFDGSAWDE
The experiment can be described thus: ITC. It counts as binding.

The target of experiment [3] is T3, Shc phosphotyrosine binding (PTB) domain (UniProt P29353-2 17-207, Atto488 label, 1:1 protein:dye (in the MST only)).
T3 sequence: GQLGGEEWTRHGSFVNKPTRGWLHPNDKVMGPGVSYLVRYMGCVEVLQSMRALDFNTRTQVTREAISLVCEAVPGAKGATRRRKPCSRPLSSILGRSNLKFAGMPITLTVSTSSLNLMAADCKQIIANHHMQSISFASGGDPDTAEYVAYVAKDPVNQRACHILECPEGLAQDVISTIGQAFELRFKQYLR
Nature of the experiment: MST.

Square brackets hold non-standard residues; d marks the D form. Ends that are not written are not given here. pY = N[C@@H](Cc1ccc(OP(=O)(O)O)cc1)C(=O)O

With `COc1ccc2c(c1)c(CC(=O)O)c(C)n2C(=O)c1ccc(Cl)cc1` [indomethacin], the Kd in experiment [1] turned out to be 590 ± 54 µM; in experiment [2], 38.2 ± 7.2 µM.

SPAFDNLY[pY]WDQ [ErbB2 pY1122 peptide] came in with a Kd in experiment [3] of 0.261 µM. In other words, the sub-micromolar range.
